Test results: the supplement of paper PMC10307832

Key:
Assay in all cases: relative viability (nuclei count vs DMSO), 5 days (fraction); higher = more cells survive
[1] = tested on: NCI-H3122
Summary of the method: (§1)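 Dosing by pin tool came one day after lung cancer cell lines were seeded in 1536-well plates, using either one drug or a fixed anchor-drug dose plus five library-drug doses (not always all listed) in √10 steps. After 5 days, nuclei were counted on 4× images. Relative viability is treated-well nuclei count divided by vehicle-well nuclei count, and values are medians of duplicate plates.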

[2] = tested on: H3255
Summary of the method: as §1

[3] = tested on: EPLC-272H
Summary of the method: as §1

[4] = tested on: NCI-H441
Summary of the method: as §1

[5] = tested on: NCI-H322M
Summary of the method: as §1

[6] = tested on: NCI-H2170
Summary of the method: as §1

[7] = tested on: 201T
Summary of the method: as §1

[8] = tested on: UMC-11
Summary of the method: as §1

[9] = tested on: NCI-H647
Summary of the method: as §1

[10] = tested on: NCI-H1650
Summary of the method: as §1

[11] = tested on: NCI-H1734
Summary of the method: as §1

[12] = tested on: PC-14
Summary of the method: as §1

[13] = tested on: NCI-H2023
Summary of the method: as §1

[14] = tested on: NCI-H1793
Summary of the method: as §1

[15] = tested on: NCI-H1563
Summary of the method: as §1

[16] = tested on: COR-L23
Summary of the method: as §1

[17] = tested on: HCC-15
Summary of the method: as §1

[18] = tested on: SW 900
Summary of the method: as §1

[19] = tested on: NCI-H520
Summary of the method: as §1

[20] = tested on: LOU-NH91
Summary of the method: as §1

[21] = tested on: NCI-H2405
Summary of the method: as §1

[22] = tested on: NCI-H2347
Summary of the method: as §1

In the case of `Cc1sc2c(c1C)C(c1ccc(Cl)cc1)=N[C@@H](CC(=O)OC(C)(C)C)c1nnc(C)n1-2` [JQ1] + N=C(N)NC(=N)NCCc1ccccc1 [Phenformin] (partner 250 µM), the relative viability ([1]; first compound 0.04 µM) was 0.362, the relative viability ([1]; first compound 0.4 µM) was 0.377 and the relative viability ([1]; first compound 1.265 µM) was 0.313. The relative viability ([1]; first compound 4 µM) was 0.264, the relative viability ([2]; first compound 0.04 µM) was 0.349 and the relative viability ([2]; first compound 0.1265 µM) was 0.348. The relative viability ([2]; first compound 0.4 µM) was 0.35, the relative viability ([2]; first compound 1.265 µM) was 0.36 and the relative viability ([2]; first compound 4 µM) was 0.36. The relative viability ([3]; first compound 0.04 µM) was 0.33, the relative viability ([3]; first compound 0.1265 µM) was 0.262 and the relative viability ([3]; first compound 0.4 µM) was 0.249. It also gave a relative viability ([3]; first compound 1.265 µM) of 0.294, a relative viability ([3]; first compound 4 µM) of 0.188 and a relative viability ([4]; first compound 0.04 µM) of 0.728. It also gave a relative viability ([4]; first compound 0.1265 µM) of 0.778, a relative viability ([4]; first compound 0.4 µM) of 0.681 and a relative viability ([4]; first compound 1.265 µM) of 0.388. For the same compound, the relative viability ([4]; first compound 4 µM) was 0.289, the relative viability ([5]; first compound 0.04 µM) was 0.686 and the relative viability ([5]; first compound 0.1265 µM) was 0.746. The relative viability ([5]; first compound 0.4 µM) was 0.66, the relative viability ([5]; first compound 1.265 µM) was 0.373 and the relative viability ([5]; first compound 4 µM) was 0.417. It also gave a relative viability ([6]; first compound 0.04 µM) of 0.408, a relative viability ([6]; first compound 0.1265 µM) of 0.394 and a relative viability ([6]; first compound 0.4 µM) of 0.402. It also gave a relative viability ([6]; first compound 1.265 µM) of 0.354, a relative viability ([6]; first compound 4 µM) of 0.315 and a relative viability ([7]; first compound 0.04 µM) of 0.47. For the same compound, the relative viability ([7]; first compound 0.1265 µM) was 0.415, the relative viability ([7]; first compound 0.4 µM) was 0.408 and the relative viability ([7]; first compound 1.265 µM) was 0.377. It also gave a relative viability ([7]; first compound 4 µM) of 0.344, a relative viability ([8]; first compound 0.04 µM) of 0.29 and a relative viability ([8]; first compound 0.1265 µM) of 0.211. For the same compound, the relative viability ([8]; first compound 0.4 µM) was 0.231, the relative viability ([8]; first compound 1.265 µM) was 0.224 and the relative viability ([8]; first compound 4 µM) was 0.195. It also gave a relative viability ([9]; first compound 0.04 µM) of 0.433, a relative viability ([9]; first compound 0.1265 µM) of 0.306 and a relative viability ([9]; first compound 0.4 µM) of 0.229. For the same compound, the relative viability ([9]; first compound 1.265 µM) was 0.0637, the relative viability ([9]; first compound 4 µM) was 0.0562 and the relative viability ([10]; first compound 0.04 µM) was 0.309. For the same compound, the relative viability ([10]; first compound 0.1265 µM) was 0.304, the relative viability ([10]; first compound 0.4 µM) was 0.182 and the relative viability ([10]; first compound 1.265 µM) was 0.118. It also gave a relative viability ([10]; first compound 4 µM) of 0.137, a relative viability ([11]; first compound 0.04 µM) of 0.326 and a relative viability ([11]; first compound 0.1265 µM) of 0.312. The relative viability ([11]; first compound 0.4 µM) was 0.336, the relative viability ([11]; first compound 1.265 µM) was 0.251 and the relative viability ([11]; first compound 4 µM) was 0.23. For the same compound, the relative viability ([12]; first compound 0.04 µM) was 0.485, the relative viability ([12]; first compound 0.1265 µM) was 0.237 and the relative viability ([12]; first compound 0.4 µM) was 0.432. The relative viability ([12]; first compound 1.265 µM) was 0.154, the relative viability ([12]; first compound 4 µM) was 0.167 and the relative viability ([13]; first compound 0.04 µM) was 0.399. The relative viability ([13]; first compound 0.1265 µM) was 0.354, the relative viability ([13]; first compound 0.4 µM) was 0.307 and the relative viability ([13]; first compound 1.265 µM) was 0.177. It also gave a relative viability ([13]; first compound 4 µM) of 0.147, a relative viability ([14]; first compound 0.04 µM) of 0.315 and a relative viability ([14]; first compound 0.1265 µM) of 0.382. It also gave a relative viability ([14]; first compound 0.4 µM) of 0.35, a relative viability ([14]; first compound 1.265 µM) of 0.274 and a relative viability ([14]; first compound 4 µM) of 0.378. For the same compound, the relative viability ([15]; first compound 0.04 µM) was 0.672, the relative viability ([15]; first compound 0.1265 µM) was 0.571 and the relative viability ([15]; first compound 0.4 µM) was 0.682. For the same compound, the relative viability ([15]; first compound 1.265 µM) was 0.596, the relative viability ([15]; first compound 4 µM) was 0.568 and the relative viability ([16]; first compound 0.04 µM) was 0.385. For the same compound, the relative viability ([16]; first compound 0.1265 µM) was 0.351, the relative viability ([16]; first compound 0.4 µM) was 0.428 and the relative viability ([16]; first compound 1.265 µM) was 0.222. For the same compound, the relative viability ([16]; first compound 4 µM) was 0.227, the relative viability ([17]; first compound 0.04 µM) was 0.458 and the relative viability ([17]; first compound 0.4 µM) was 0.318. The relative viability ([17]; first compound 1.265 µM) was 0.189, the relative viability ([17]; first compound 4 µM) was 0.19 and the relative viability ([18]; first compound 0.04 µM) was 0.462. For the same compound, the relative viability ([18]; first compound 0.1265 µM) was 0.519, the relative viability ([18]; first compound 0.4 µM) was 0.285 and the relative viability ([18]; first compound 1.265 µM) was 0.187. The relative viability ([18]; first compound 4 µM) was 0.139, the relative viability ([19]; first compound 0.04 µM) was 0.475 and the relative viability ([19]; first compound 0.1265 µM) was 0.614. The relative viability ([19]; first compound 0.4 µM) was 0.544, the relative viability ([19]; first compound 1.265 µM) was 0.275 and the relative viability ([19]; first compound 4 µM) was 0.321. The relative viability ([20]; first compound 0.04 µM) was 0.735, the relative viability ([20]; first compound 0.1265 µM) was 0.555 and the relative viability ([20]; first compound 0.4 µM) was 0.384. For the same compound, the relative viability ([20]; first compound 1.265 µM) was 0.328, the relative viability ([20]; first compound 4 µM) was 0.326 and the relative viability ([21]; first compound 0.04 µM) was 0.381. It also gave a relative viability ([21]; first compound 0.1265 µM) of 0.224, a relative viability ([21]; first compound 0.4 µM) of 0.385 and a relative viability ([21]; first compound 1.265 µM) of 0.239. For the same compound, the relative viability ([21]; first compound 4 µM) was 0.223, the relative viability ([22]; first compound 0.04 µM) was 0.332 and the relative viability ([22]; first compound 0.1265 µM) was 0.504. The relative viability ([22]; first compound 0.4 µM) was 0.323, the relative viability ([22]; first compound 1.265 µM) was 0.358 and the relative viability ([22]; first compound 4 µM) was 0.233.
